Measured values taken from PMC4668926 (Biochemistry, 2015).

Columns and labels:
[1] = biological target: T1, KPR (ketopantoate reductase) (Staphylococcus aureus, UniProt A0A0J9X283); assay: FRET titration, Trp167 to bound NADPH; assay type: binding
T1 sequence (A0A0J9X283 1-286): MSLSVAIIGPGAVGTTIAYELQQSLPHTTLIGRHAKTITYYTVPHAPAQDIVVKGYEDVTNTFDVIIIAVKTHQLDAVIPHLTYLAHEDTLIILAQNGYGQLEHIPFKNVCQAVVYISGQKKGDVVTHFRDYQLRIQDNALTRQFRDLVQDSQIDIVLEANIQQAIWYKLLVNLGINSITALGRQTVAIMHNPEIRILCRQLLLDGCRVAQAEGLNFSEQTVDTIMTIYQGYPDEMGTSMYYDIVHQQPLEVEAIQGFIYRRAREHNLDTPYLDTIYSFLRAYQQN

[2] = biological target: Staphylococcus aureus ketopantoate reductase (Staphylococcus aureus); assay: AUC

| stoichiometry N [2] | Compound | Kd [1] [nM] |
| --- | --- | --- |
| – | NC(=O)C1=CN([C@@H]2O[C@H](COP(=O)(O)OP(=O)(O)OC[C@H]3O[C@@H](n4cnc5c(N)ncnc54)[C@H](OP(=O)(O)O)[C@@H]3O)[C@@H](O)[C@H]2O)C=CC1 [NADPH] | 58 ± 2 |
| 2 | Staphylococcus aureus ketopantoate reductase (enzyme) | – |
